Source: patent US10098352B2, “Honeybee repellents and uses thereof” (Inscent, Inc., priority 2011, dated 2018)

How the values were obtained:
[1] = test system: Apis mellifera Carniolan foraging worker honeybees; test: Proboscis extension response (PER) assay in bees conditioned to 2-heptanone; assay type: in vivo; settings: final compound concentration 0.5% (TRITON X-100/water), 4 s exposure; only bees PER-positive to 2-heptanone and negative to controls counted
Experimental: To determine whether a living honeybee can recognize a candidate compound, these compounds were tested using a proboscis extension response (PER) assay using classical conditioning approaches. Proboscis extension response conditioning is a case of appetitive learning, in which bees learn to associate odor stimuli with sucrose reward in the laboratory. In this case, bees were conditioned to produce a PER to 2-heptanone as the conditioned stimulus and a sugar reward as the unconditioned stimulus. These trained bees were then exposed to an odor pulse of a candidate compound to test whether a candidate compound would also produce a PER. If the candidate compound “mimics” 2-heptanone then the honeybee will extend its proboscis.
For conditioning procedures, Apis mellifera Carniolan foraging worker honeybees were obtained from a local apiary (typically 60 bees per shipment). The honeybees were held overnight in insect cages with food and water freely available, in an environmentally controlled room on a light cycle similar to the ambient cycle at the time of the assay.
For conditioning procedures, all tests were done in an odorant delivery apparatus set inside a fume hood. The apparatus comprised a set of open-ended, horizontal, 3 cm diameter by 10 cm long plastic tubes. Each tube was designed where a honeybee could be positioned at the distal end of a tube, with the opening at the other end of the tube located proximal to an inlet of the fume hood. To deliver an odorant, room air was pumped by a diaphragm pump through a particle filter via 0.25 inch plastic tubing at approximately 0.7 m/sec. The air flow passes into the headspace above an odorant (0.5% [v/v]2-heptanone dissolved in odorless light paraffin oil) contained in a 100 mL bottle. The headspace air then passes through another plastic tube to a manifold of 4-way valves, each of which was attached near the proximal end of a plastic tube containing a bee. Each bee was exposed separately for a desired time period to the odorant by opening and closing the appropriate valve. When each valve was closed, the odor was flushed away immediately by the continuous fume hood air stream.
To train a honeybee to respond to a conditioned and unconditioned stimuli, bees were placed, without anesthesia, in individual 1.5 mL micro-centrifuge holding tubes and held overnight without access to food or water. The holding tubes containing the starved bees were placed in racks in groups of eight. One rack at a time was placed behind the odorant delivery apparatus so that each bee's head is centered at the distal end of a horizontal plastic tube. Each bee was exposed to the 2-heptanone odorant alone for four seconds, and then while being fed an 80% sucrose solution for and additional three seconds. The sucrose solution was delivered on a piece of saturated filter paper held in forceps. […] Positive and negative responses were recorded. A positive PER was scored when a bee extended its proboscis before the sucrose appeared. In a typical trial, 48 individual bees were subjected to conditioning. Six rounds of training were done before testing began, and typically a majority of the bees were successfully conditioned by the second or third round of training.
After conditioning, honeybees were tested with the candidate compounds the same day or on the following day or, most commonly, both. When held overnight, bees were fed with sucrose and kept in their holding tubes. When tested the day after training, bees were given one or more rounds of conditioning with 2-heptatone to refresh their memories. Candidate compounds stocks were made at 5% (w/v) in polyoxyethylene octyl phenyl ether (TRITON® X-100), a non-ionic detergent/surfactant, and stored at 4° C. This detergent is similar to substances used as carriers for a variety of commercial pest-control agents, can act as a solvent for both hydrophilic and hydrophobic substances, and is itself nearly odorless. […]

[2] = test system: OBP2; test: Fluorescent-quench ligand-protein-binding assay (OBP2 binding screen); design: species or system Apis mellifera; key: Low, indicates no detectable binding to OBP2.; Moderate, indicates that 50% or less of the compound bound to OBP2.; Strong, indicates that 51% or more of the compound bound to OBP2
Text: To identify a honeybee repellent disclosed herein, candidate compounds were screened based upon the fact that 2-heptanone is an established repellent of bees. 2-heptanone is thought to mediate its behavioral response through binding to a specific odorant-binding protein called OBP2. Therefore compounds that bind OBP2 have the potential to act as odor “mimics” of 2-heptanone. By utilizing a fluorescent-quench, ligand-protein-binding assay, 30,000 compounds from the DIVERSET® library (ChemBridge Corp., San Diego, Calif.), a chemical library, were screened and over 150 candidate compounds were isolated that bind OBP2 (Table 1). Such assays are generally known in the art. See, e.g., Briand, et al., Ligand-Binding Properties and Structural Characterization of a Novel Rat Odorant-Binding Protein Variant, Eur. J. Biochem. 267(10): 3079-3089 (2000); Briand, et al., Ligand Binding and Physico-Chemical Properties of ASP2, A Recombinant Odorant-Binding Protein From Honeybee (Apis mellifera L.), Eur. J. Biochem. 268(3): 752-760 (2001); Briand, et al., Characterization of a Chemosensory Protein (ASP3c) from Honeybee (Apis mellifera L.) as a Brood Pheromone Carrier, Eur. J. Biochem. 269(18): 4586-4596 (2002), each of which is hereby incorporated by reference in its entirety.

Row | SMILES | 2-heptanone positive bees testing positive to compound [1] [%] | OBP2 binding characteristic of compound [2]
1 | O=C(C=Cc1c[nH]c2ccccc12)c1ccc(C(=O)C=Cc2c[nH]c3ccccc23)cc1 [compound 51] | 14.8 | –
2 | Cc1ccc2c(c1Br)C(=NNC(=O)C1CC13CCC3)C(=O)N2 (centres unmarked) [compound 55] | 13.6 | Moderate (Moderate, indicates that 50% or less of the compound bound to OBP2.)
3 | COc1cccc(C(=O)Oc2ccc3c(c2)C(C)=CC(C)(C)N3)c1 [compound 37] | 14.4 | Moderate (Moderate, indicates that 50% or less of the compound bound to OBP2.)
4 | O=C(Nc1ccccc1)Nc1ccccc1C#Cc1ccccc1 [compound 57] | 16.7 | Moderate (Moderate, indicates that 50% or less of the compound bound to OBP2.)
5 | O=C(COC(=O)c1ccccc1)c1cccc(Br)c1 [compound 54] | 9.1 | Moderate (Moderate, indicates that 50% or less of the compound bound to OBP2.)
6 | O=[N+]([O-])c1cc2c(cc1CN1CCSCC1)OCO2 [compound 47] | 18.3 | –
7 | COc1ccc(CN2CCN(Cc3cccc(C)c3)CC2)cc1 [compound 65] | 6.3 | –
8 | COc1ccccc1N1C(=O)C(=Cc2ccc(Cl)cc2)SC1=S [compound 5] | 7.1 | –
9 | CC(C)(C)C1=CC(=NNC(N)=S)C=C(C(C)(C)C)C1=O [compound 42] | 2.6 | Moderate (Moderate, indicates that 50% or less of the compound bound to OBP2.)
10 | CN(CCc1ccccn1)Cc1cc2c(cc1[N+](=O)[O-])OCO2 [compound 48] | 18.9 | –
11 | CCn1c2ccccc2c2cc(C=Nc3ccc(C(N)=O)cc3)ccc21 [compound 56] | 18.2 | Moderate (Moderate, indicates that 50% or less of the compound bound to OBP2.)
12 | CC(C)Nc1c(Cl)c(Cl)c(Cl)c2c1C(=O)c1ccccc1C2=O [compound 22] | 4.4 | Strong (Strong, indicates that 51% or more of the compound bound to OBP2.)
13 | CCOC(=O)C1=C(C)NC(C)=C(C(=O)OC)C1c1ccc(Br)cc1 (centres unmarked) [compound 41] | 1.4 | Moderate (Moderate, indicates that 50% or less of the compound bound to OBP2.)
14 | COc1ccc2ccccc2c1C=NN1C(=O)c2ccccc2C1=O [compound 13] | 8.7 | –
15 | COC(=O)C1=C(C(=O)OC)SC(=C2C(=S)C(C)(C)Nc3cc(C)ccc32)S1 [compound 19] | 2.8 | Strong (Strong, indicates that 51% or more of the compound bound to OBP2.)
16 | O=C(C=Cc1c[nH]c2ccccc12)c1ccc(-c2ccccc2)cc1 [compound 52] | 13.9 | –
17 | CCN1C(=O)C(=Cc2ccc(O)cc2)SC1=S [compound 15] | 4.1 | Strong (Strong, indicates that 51% or more of the compound bound to OBP2.)
18 | O=c1[nH]c2ccccc2nc1-c1ccccc1NCc1ccc(F)cc1 [compound 18] | 4.1 | Strong (Strong, indicates that 51% or more of the compound bound to OBP2.)
19 | COc1ccc(CN(C)CCN(C)C)c(C)c1C [compound 32] | 2.4 | –
20 | COc1ccc(CN(C)CCN(C)C)c(C)c1C [compound 66] | 3.1 | –

Row | SMILES | 2-heptanone positive bees testing positive to compound [1] [%] | OBP2 binding characteristic of compound [2]
21 | COC(=O)C1=C(C(=O)OC)SC(=C2C(=S)C(C)(C)N(C)c3ccccc32)S1 [compound 4] | 4.7 | –
22 | CCOC(=O)c1cc(-c2cccc(N)c2)nc2ccccc12 [compound 21] | 4.4 | Strong (Strong, indicates that 51% or more of the compound bound to OBP2.)
23 | COc1ccc(CN2CCN(c3cccc(C)c3C)CC2)c(C)c1C [compound 29] | 0.0 | Low*
24 | O=C(C=Cc1ccccc1)OCC1CCCN(Cc2cccc([N+](=O)[O-])c2)C1 (centres unmarked) [compound 23] | 3.3 | Strong (Strong, indicates that 51% or more of the compound bound to OBP2.)
25 | Ic1ccc(-c2cn3ccsc3n2)cc1 [compound 53] | 18.2 | Moderate (Moderate, indicates that 50% or less of the compound bound to OBP2.)
26 | O=[N+]([O-])c1cc2c(cc1CN1CCN(c3cccc(Cl)c3)CC1)OCO2 [compound 64] | 7.0 | Moderate (Moderate, indicates that 50% or less of the compound bound to OBP2.)
27 | COc1cc(CN2CCN(Cc3ccc4c(c3)OCO4)CC2)c([N+](=O)[O-])cc1OC [compound 46] | 12.8 | –
28 | COc1ccc(CN2CCOCC2)c(C)c1C [compound 33] | 8.5 | Low*
29 | COc1cc(C)c(CN2CCN(CCO)CC2)cc1C [compound 31] | 0.0 | –
30 | CC1CN(c2ccc([N+](=O)[O-])c(NCCOc3ccc(Cl)cc3)c2)CCN1 (centres unmarked) [compound 60] | 25.0 | Moderate (Moderate, indicates that 50% or less of the compound bound to OBP2.)
31 | c1ccc(CCN(Cc2ccccc2)Cc2cccnc2)cc1 [compound 39] | 1.9 | Moderate (Moderate, indicates that 50% or less of the compound bound to OBP2.)
32 | O=C(NCCCOC(=O)c1ccc(Cl)cc1)c1ccc(Cl)cc1 [compound 58] | 8.3 | Moderate (Moderate, indicates that 50% or less of the compound bound to OBP2.)
33 | COc1ccc(CN2CCN(C)CC2)c(C)c1C [compound 62] | 11.6 | –
34 | COc1ccc(CN2CCOCC2)c(C)c1C [compound 63] | 10.9 | –
35 | CCN(CC)c1ccc2c(C)c([N+](=O)[O-])c(=O)oc2c1 [compound 6] | 0.0 | –
36 | CCOc1ccc(C=Nc2ccc(Br)c(Cl)c2)cc1 [compound 12] | 5.8 | –
37 | COc1ccc(CN2CCN(c3ccc(C)cc3)CC2)c(C)c1C [compound 49] | 0.0 | –
38 | CN1CCN(Cc2cc3c(cc2[N+](=O)[O-])OCO3)CC1 [compound 45] | 11.6 | –
39 | O=[N+]([O-])c1cc2c(cc1CN1CCN(c3cccc(Cl)c3)CC1)OCO2 [compound 24] | 4.8 | –
